# Target: T1, human TRPV1 (Homo sapiens, UniProt Q8NER1)
# T1 construct: expressed in transfected cells; host or cells: CHO-K1
# Assay: Measurement of capsaicin-induced Ca influx in human TRPV1 transformed CHO cell line using FDSS-6000
# Format: cell-based
# Conditions: concentration at which the capsaicin concentration-reaction curve is shifted two times to the right, human TRPV1 transformed CHO cells
# T1 sequence (Q8NER1 whole entry): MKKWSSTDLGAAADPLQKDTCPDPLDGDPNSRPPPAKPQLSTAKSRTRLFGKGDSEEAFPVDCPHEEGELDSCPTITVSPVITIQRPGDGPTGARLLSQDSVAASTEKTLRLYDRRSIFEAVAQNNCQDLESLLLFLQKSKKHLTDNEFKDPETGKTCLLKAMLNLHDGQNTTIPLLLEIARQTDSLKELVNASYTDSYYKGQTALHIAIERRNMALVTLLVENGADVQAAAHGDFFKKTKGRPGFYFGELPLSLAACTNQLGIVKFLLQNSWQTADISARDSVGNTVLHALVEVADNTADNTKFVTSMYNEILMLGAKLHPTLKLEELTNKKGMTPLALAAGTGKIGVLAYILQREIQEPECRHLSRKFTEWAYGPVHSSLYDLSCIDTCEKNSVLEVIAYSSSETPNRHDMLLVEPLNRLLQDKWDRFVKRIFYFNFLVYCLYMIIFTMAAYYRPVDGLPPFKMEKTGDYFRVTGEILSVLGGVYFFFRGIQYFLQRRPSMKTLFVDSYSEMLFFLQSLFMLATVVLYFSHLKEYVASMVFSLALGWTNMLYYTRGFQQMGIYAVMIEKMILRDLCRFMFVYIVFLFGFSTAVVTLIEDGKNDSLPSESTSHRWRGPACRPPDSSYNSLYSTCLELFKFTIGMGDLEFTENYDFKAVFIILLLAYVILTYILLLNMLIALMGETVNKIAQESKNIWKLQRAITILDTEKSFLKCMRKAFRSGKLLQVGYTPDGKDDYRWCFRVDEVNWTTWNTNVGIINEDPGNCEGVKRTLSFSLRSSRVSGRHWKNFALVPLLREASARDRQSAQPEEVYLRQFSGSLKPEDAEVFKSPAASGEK
row,SMILES,A2 VALUE
1,"CC(C)(F)C(=O)N1CC/C(=C\C(=O)Nc2cccc3c2CC(O)CC3)c2ccc(C(F)(F)F)cc21 (stereo not shown) [Example 96, (E)-2-(1-(2-fluoro-2-methylpropanoyl)-7-trifluoromethyl-2,3-dihydroquinolin-4(1H)-ylidene)-N-(7-hydroxy-5,6,7,8-tetrahydronaphthalen-1-yl)acetamide]",A (compounds of the present invention having an A2 value of less than 100 nM are represented by A)
2,"O=C(/C=C1\CCN(C2CCCCC2)c2cc(C(F)(F)F)ccc21)Nc1ccc2cccnc2c1 [Example 97, (E)-2-(7-trifluoromethyl-2,3-dihydro-1-cyclohexylquinolin-4(1H)-ylidene)-N-(quinolin-7-yl)acetamide]",A (compounds of the present invention having an A2 value of less than 100 nM are represented by A)
3,"Cc1ccc(S(=O)(=O)N2CC/C(=C\C(=O)Nc3ccc4cccnc4c3)c3ccc(C(F)(F)F)cc32)cc1 [Example 98, (E)-2-(7-trifluoromethyl-2,3-dihydro-1-(4-methylbenzenesulfonyl)quinolin-4(1H)-ylidene)-N-(quinolin-7-yl)acetamide]",A (compounds of the present invention having an A2 value of less than 100 nM are represented by A)
4,"O=C(/C=C1\CCN(C(=O)C2CC2)c2cc(C(F)(F)F)ccc21)Nc1ccc2cccnc2c1 [Example 99, (E)-2-(7-trifluoromethyl-2,3-dihydro-1-cyclopropanecarbonylquinolin-4(1H)-ylidene)-N-(quinolin-7-yl)acetamide]",A (compounds of the present invention having an A2 value of less than 100 nM are represented by A)
5,"COCCC(=O)N1CC/C(=C\C(=O)Nc2ccc3cccnc3c2)c2ccc(C(F)(F)F)cc21 [Example 100, (E)-2-(7-trifluoromethyl-2,3-dihydro-1-(3-methoxypropanoyl)quinolin-4(1H)-ylidene)-N-(quinolin-7-yl)acetamide]",A (compounds of the present invention having an A2 value of less than 100 nM are represented by A)
6,"COC(=O)CCC(=O)N1CC/C(=C\C(=O)Nc2ccc3cccnc3c2)c2ccc(C(F)(F)F)cc21 [Example 101, (E)-2-(7-trifluoromethyl-2,3-dihydro-1-(3-(carbomethoxy)propanoyl)quinolin-4(1H)-ylidene)-N-(quinolin-7-yl)acetamide]",A (compounds of the present invention having an A2 value of less than 100 nM are represented by A)
7,"O=C(/C=C1\CCN(C(=O)CC2CCCC2)c2cc(C(F)(F)F)ccc21)Nc1ccc2cccnc2c1 [Example 102, (E)-2-(7-trifluoromethyl-2,3-dihydro-1-(cyclopentylacetyl)quinolin-4(1H)-ylidene)-N-(quinolin-7-yl)acetamide]",A (compounds of the present invention having an A2 value of less than 100 nM are represented by A)
8,"O=C(/C=C1\CCN(C(=O)C2CC2)c2cc(C(F)(F)F)ccc21)Nc1cccc2c1CC(O)CC2 (stereo not shown) [Example 105, (E)-2-(7-trifluoromethyl-2,3-dihydro-1-cyclopropanecarbonylquinolin-4(1H)-ylidene)-N-(7-hydroxy-5,6,7,8-tetrahydronaphthalen-1-yl)acetamide]",A (compounds of the present invention having an A2 value of less than 100 nM are represented by A)
9,"O=C(/C=C1\CCNc2cc(C(F)(F)F)ccc21)Nc1cccc2c1CC(O)CC2 (stereo not shown) [Example 106, (E)-2-(7-trifluoromethyl-2,3-dihydroquinolin-4(1H)-ylidene)-N-(7-hydroxy-5,6,7,8-tetrahydronaphthalen-1-yl)acetamide]",A (compounds of the present invention having an A2 value of less than 100 nM are represented by A)
10,"CCCCC(=O)N1CC/C(=C\C(=O)Nc2cccc3c2CC(O)C(=O)N3)c2ccc(C(F)(F)F)cc21 (stereo not shown) [Example 107, (E)-2-(7-trifluoromethyl-2,3-dihydro-1-pentanoylquinolin-4(1H)-ylidene)-N-(3,4-dihydro-3-hydroxy(1H)quinolin-2-on-5-yl)acetamide]",A (compounds of the present invention having an A2 value of less than 100 nM are represented by A)
11,"CCCCC(=O)N1CC/C(=C\C(=O)Nc2cccc3c2CC(O)CN3)c2ccc(C(F)(F)F)cc21 (stereo not shown) [Example 108, (E)-2-(7-trifluoromethyl-2,3-dihydro-1-pentanoylquinolin-4(1H)-ylidene)-N-(3-hydroxy-1,2,3,4-tetrahydroquinolin-5-yl)acetamide]",A (compounds of the present invention having an A2 value of less than 100 nM are represented by A)
12,"CC1(C)CC1C(=O)N1CC/C(=C\C(=O)Nc2cccc3c2CC(O)CC3)c2ccc(C(F)(F)F)cc21 (stereo not shown) [Example 109, (E)-2-(7-trifluoromethyl-2,3-dihydro-1-((2,2-dimethylcyclopropane)carbonyl)quinolin-4(1H)-ylidene)-N-(7-hydroxy-5,6,7,8-tetrahydronaphthalen-1-yl)acetamide]",A (compounds of the present invention having an A2 value of less than 100 nM are represented by A)
13,O=C(/C=C1\CCN(C(=O)C2CCC(C(F)(F)F)CC2)c2cc(C(F)(F)F)ccc21)Nc1cccc2c1CC(O)CC2 (stereo not shown) [Example 110],A (compounds of the present invention having an A2 value of less than 100 nM are represented by A)
14,"O=C(/C=C1\CCN(C(=O)c2ccco2)c2cc(C(F)(F)F)ccc21)Nc1cccc2c1CC(O)CC2 (stereo not shown) [Example 111, (E)-2-(7-trifluoromethyl-2,3-dihydro-1-(2-furancarbonyl)quinolin-4(1H)-ylidene)-N-(7-hydroxy-5,6,7,8-tetrahydronaphthalen-1-yl)acetamide]",A (compounds of the present invention having an A2 value of less than 100 nM are represented by A)
15,"O=C(/C=C1\CCN(C(=O)C2(O)CC2)c2cc(C(F)(F)F)ccc21)Nc1cccc2c1CC(O)CC2 (stereo not shown) [Example 112, (E)-2-(1-(1-hydroxycyclopropanecarbonyl)-7-trifluoromethyl-2,3-dihydroquinolin-4(1H)-ylidene)-N-(7-hydroxy-5,6,7,8-tetrahydronaphthalen-1-yl)acetamide]",B (compounds having an A2 value of 100 nM or more are represented by B)
16,"O=CN1CC/C(=C\C(=O)Nc2cccc3c2CC(O)CC3)c2ccc(C(F)(F)F)cc21 (stereo not shown) [Example 114, (E)-2-(1-formyl-7-trifluoromethyl-2,3-dihydroquinolin-4(1H)-ylidene)-N-(7-hydroxy-5,6,7,8-tetrahydronaphthalen-1-yl)acetamide]",A (compounds of the present invention having an A2 value of less than 100 nM are represented by A)
17,"O=C(/C=C1\CCN(C(=O)C2(F)CCCC2)c2cc(C(F)(F)F)ccc21)Nc1cccc2c1CC(O)CC2 (stereo not shown) [Example 115, (E)-2-(1-(1-fluorocyclopentanecarbonyl)-7-trifluoromethyl-2,3-dihydroquinolin-4(1H)-ylidene)-N-(7-hydroxy-5,6,7,8-tetrahydronaphthalen-1-yl)acetamide]",A (compounds of the present invention having an A2 value of less than 100 nM are represented by A)
18,"CC(F)(F)CC(=O)N1CC/C(=C\C(=O)Nc2cccc3c2CC(O)CC3)c2ccc(C(F)(F)F)cc21 (stereo not shown) [Example 116, (E)-2-(1-(3,3-difluorobutanoyl)-7-trifluoromethyl-2,3-dihydroquinolin-4(1H)-ylidene)-N-(7-hydroxy-5,6,7,8-tetrahydronaphthalen-1-yl)acetamide]",A (compounds of the present invention having an A2 value of less than 100 nM are represented by A)
19,"CCC(F)(F)CC(=O)N1CC/C(=C\C(=O)Nc2cccc3c2CC(O)CC3)c2ccc(C(F)(F)F)cc21 (stereo not shown) [Example 117, (E)-2-(1-(3,3-difluoropentanoyl)-7-trifluoromethyl-2,3-dihydroquinolin-4(1H)-ylidene)-N-(7-hydroxy-5,6,7,8-tetrahydronaphthalen-1-yl)acetamide]",A (compounds of the present invention having an A2 value of less than 100 nM are represented by A)
20,"O=C(/C=C1\CCN(C(=O)C2CC(F)(F)C2)c2cc(C(F)(F)F)ccc21)Nc1cccc2c1CC(O)CC2 (stereo not shown) [Example 118, (E)-2-(1-(3,3-difluorocyclobutanecarbonyl)-7-trifluoromethyl-2,3-dihydroquinolin-4(1H)-ylidene)-N-(7-hydroxy-5,6,7,8-tetrahydronaphthalen-1-yl)acetamide]",A (compounds of the present invention having an A2 value of less than 100 nM are represented by A)
21,"O=C1CCc2cccc(NC(=O)/C=C3\CCOc4cc(C(F)(F)F)ccc43)c2C1 [Example 119, (E)-N-(7-oxo-5,6,7,8-tetrahydronaphthalen-1-yl)-2-(7-trifluoromethyl-chroman-4-ylidene)acetamide]",A (compounds of the present invention having an A2 value of less than 100 nM are represented by A)
22,"O=C(/C=C1\CCOc2cc(C(F)(F)F)ccc21)Nc1cccc2ccc(O)cc12 [Example 120, (E)-N-(7-hydroxynaphthalen-1-yl)-2-(7-trifluoromethyl-chroman-4-ylidene)acetamide]",A (compounds of the present invention having an A2 value of less than 100 nM are represented by A)
23,"O=C(/C=C1\CCOc2cc(C(F)(F)F)ccc21)Nc1cccc2c1CC(O)C(=O)N2 (stereo not shown) [Example 121, (E)-N-(3-hydroxy-2-oxo-1,2,3,4-tetrahydroquinolin-5-yl)-2-(7-trifluoromethyl-chroman-4-ylidene)acetamide]",A (compounds of the present invention having an A2 value of less than 100 nM are represented by A)
24,"O=C(/C=C1\CCOc2cc(C(F)(F)F)ccc21)Nc1cccc2c1CC(O)CN2 (stereo not shown) [Example 122, (E)-N-(3-hydroxy-1,2,3,4-tetrahydroquinolin-5-yl)-2-(7-trifluoromethyl-chroman-4-ylidene)acetamide]",A (compounds of the present invention having an A2 value of less than 100 nM are represented by A)
25,"O=C(/C=C1\CCOc2cc(C(F)(F)F)ccc21)Nc1cccc2c1CC(O)CO2 (stereo not shown) [Example 125, (E)-N-(3-hydroxy-chroman-5-yl)-2-(7-trifluoromethyl-chroman-4-ylidene)acetamide]",A (compounds of the present invention having an A2 value of less than 100 nM are represented by A)
